Laboratory results as given in ChEMBL document CHEMBL3272098, “Reactions of 2-acyloxyisobutyryl halides with nucleosides. 7. Synthesis and biological evaluation of some 2,2'-anhydro-1(3',5'-di-O-acyl-beta-D-arabinofuranosyl)cytosine hydrochlorides” (J Med Chem, 1976).
The source made the active and inactive calls. The calls are words filed in the database; no cut-off is given here.

These compounds were tested on HeLa (assay: Cytotoxicity against human HeLa cells after 48 hrs by Coulter counting analysis). Details: read-out: ED50 (the source's name).
Format: functional
`Cl.N=c1ccn2c(n1)O[C@H]1[C@H](O)[C@@H](CO)O[C@H]12` [ANCITABINE HYDROCHLORIDE] gave an EC50 of 0.06 µg/mL.
For `CC(=O)O[C@H]1[C@@H]2Oc3nc(=N)ccn3[C@@H]2O[C@@H]1COC(=O)C(C)(C)C.Cl`, the EC50 was 0.2 µg/mL.
Work on `CCCCCCCCCCCCCC(=O)OC[C@H]1O[C@@H]2[C@@H](Oc3nc(=N)ccn32)[C@@H]1OC(=O)CCCCCCCCCCCCC.Cl` yielded an EC50 of 0.48 µg/mL.

These compounds were tested on Vaccinia virus (assay: Antiviral activity against Vaccinia virus IHD infected in African green monkey BGM cells after 6 days by plaque reduction assay). Details: Orthopoxvirus vaccinia, 144 h, read-out: ED50 (the source's name).
Format: functional
`Cl.N=c1ccn2c(n1)O[C@H]1[C@H](O)[C@@H](CO)O[C@H]12` [ANCITABINE HYDROCHLORIDE] showed an EC50 of 0.41 µM.
`CC(=O)O[C@H]1[C@@H]2Oc3nc(=N)ccn3[C@@H]2O[C@@H]1COC(=O)C(C)(C)C.Cl` gave an EC50 of 0.77 µM.
For `CCCCCCCCCCCCCC(=O)OC[C@H]1O[C@@H]2[C@@H](Oc3nc(=N)ccn32)[C@@H]1OC(=O)CCCCCCCCCCCCC.Cl`, the EC50 was 1.75 µM.

What follows are compounds tested on Herpesviridae sp. (assay: Antiviral activity against Herpes simplex virus HF infected in African green monkey BGM cells after 6 days by plaque reduction assay). Details: 144 h, read-out: ED50 (the source's name).
Format: functional
`Cl.N=c1ccn2c(n1)O[C@H]1[C@H](O)[C@@H](CO)O[C@H]12` [ANCITABINE HYDROCHLORIDE] showed an EC50 of 0.7 µM.
With `CC(=O)O[C@H]1[C@@H]2Oc3nc(=N)ccn3[C@@H]2O[C@@H]1COC(=O)C(C)(C)C.Cl` the EC50 was 3.2 µM.
`CCCCCCCCCCCCCC(=O)OC[C@H]1O[C@@H]2[C@@H](Oc3nc(=N)ccn32)[C@@H]1OC(=O)CCCCCCCCCCCCC.Cl` gave an EC50 of 6.05 µM.

These compounds were tested on BGM (assay: Antiviral activity against Poliovirus type 1 Mahoney infected in African green monkey BGM cells after 5 days by pulp disk diffusion assay). Details: Human poliovirus 1 Mahoney.
Format: functional, cell-based
For `Cl.N=c1ccn2c(n1)O[C@H]1[C@H](O)[C@@H](CO)O[C@H]12` [ANCITABINE HYDROCHLORIDE], the Activity was “inactive”.
For `CC(=O)O[C@H]1[C@@H]2Oc3nc(=N)ccn3[C@@H]2O[C@@H]1COC(=O)C(C)(C)C.Cl`, the Activity was “inactive”.
For `CCCCCCCCCCCCCC(=O)OC[C@H]1O[C@@H]2[C@@H](Oc3nc(=N)ccn32)[C@@H]1OC(=O)CCCCCCCCCCCCC.Cl`, the Activity was “inactive”.

The compounds below were run on Measles morbillivirus (assay: Antiviral activity against Measles virus infected in African green monkey BGM cells after 5 days by pulp disk diffusion assay). Details: not given.
Format: functional, organism-based
For `Cl.N=c1ccn2c(n1)O[C@H]1[C@H](O)[C@@H](CO)O[C@H]12` [ANCITABINE HYDROCHLORIDE], the Activity was “inactive”.
With `CC(=O)O[C@H]1[C@@H]2Oc3nc(=N)ccn3[C@@H]2O[C@@H]1COC(=O)C(C)(C)C.Cl` the Activity was “inactive”.
For `CCCCCCCCCCCCCC(=O)OC[C@H]1O[C@@H]2[C@@H](Oc3nc(=N)ccn32)[C@@H]1OC(=O)CCCCCCCCCCCCC.Cl`, the Activity was “inactive”.

The compounds below were run on unidentified influenza virus (assay: Antiviral activity against Influenza virus Ao/WNS infected in monkey LLC-MK2 cells after 5 days by pulp disk diffusion assay). Details: not given.
Format: functional, organism-based
With `Cl.N=c1ccn2c(n1)O[C@H]1[C@H](O)[C@@H](CO)O[C@H]12` [ANCITABINE HYDROCHLORIDE] the Activity was “inactive”.
In the case of `CC(=O)O[C@H]1[C@@H]2Oc3nc(=N)ccn3[C@@H]2O[C@@H]1COC(=O)C(C)(C)C.Cl`, the Activity is reported as “inactive”.
In the case of `CCCCCCCCCCCCCC(=O)OC[C@H]1O[C@@H]2[C@@H](Oc3nc(=N)ccn32)[C@@H]1OC(=O)CCCCCCCCCCCCC.Cl`, the Activity is reported as “inactive”.

These compounds were tested on L1210 (assay: Antitumor activity against mouse L1210 cells allografted in BDF1 mouse assessed as increase in life span at 50 mg/kg, ip administered 24 hrs post-implantation measured up to 30 days relative to control). Details: route intraperitoneal.
Format: functional
`CCCCCCCCCCCCCC(=O)OC[C@H]1O[C@@H]2[C@@H](Oc3nc(=N)ccn32)[C@@H]1OC(=O)CCCCCCCCCCCCC.Cl` was tested, and the ILS at 50 mg/kg was > 129%.

The compounds below were run on L1210 (assay: Antitumor activity against mouse L1210 cells allografted in BDF1 mouse assessed as increase in life span at 200 mg/kg, ip administered 24 hrs post-implantation measured up to 30 days relative to control). Details: route intraperitoneal.
Format: functional
For `Cl.N=c1ccn2c(n1)O[C@H]1[C@H](O)[C@@H](CO)O[C@H]12` [ANCITABINE HYDROCHLORIDE], the ILS at 200 mg/kg was 25%.
For `CC(=O)O[C@H]1[C@@H]2Oc3nc(=N)ccn3[C@@H]2O[C@@H]1COC(=O)C(C)(C)C.Cl`, the ILS at 200 mg/kg was 18%.
`CCCCCCCCCCCCCC(=O)OC[C@H]1O[C@@H]2[C@@H](Oc3nc(=N)ccn32)[C@@H]1OC(=O)CCCCCCCCCCCCC.Cl` was tested, and the ILS at 200 mg/kg was > 295%.

The compounds below were run on L1210 (assay: Antitumor activity against mouse L1210 cells allografted in BDF1 mouse assessed as increase in life span at 500 mg/kg, ip administered 24 hrs post-implantation measured up to 30 days relative to control). Details: route intraperitoneal.
Format: functional
With `Cl.N=c1ccn2c(n1)O[C@H]1[C@H](O)[C@@H](CO)O[C@H]12` [ANCITABINE HYDROCHLORIDE] the ILS at 500 mg/kg was 67%.

The compounds below were run on L1210 (assay: Antitumor activity against mouse L1210 cells allografted in BDF1 mouse assessed as increase in life span at 1000 mg/kg, ip administered 24 hrs post-implantation measured up to 30 days relative to control). Details: route intraperitoneal.
Format: functional
`Cl.N=c1ccn2c(n1)O[C@H]1[C@H](O)[C@@H](CO)O[C@H]12` [ANCITABINE HYDROCHLORIDE] gave an ILS at 1000 mg/kg of 89%.

These compounds were tested on Mus musculus (assay: Toxicity in BDF1 mouse allografted with mouse L1210 cells assessed as reduction in average life span at 500 mg/kg, ip administered 24 hrs post-implantation measured up to 30 days relative to control). Details: in vivo.
Format: organism-based
Set-up: dose 500 mg/kg, route intraperitoneal; scale not given: the % may be the effect or the level left
In the case of `CCCCCCCCCCCCCC(=O)OC[C@H]1O[C@@H]2[C@@H](Oc3nc(=N)ccn32)[C@@H]1OC(=O)CCCCCCCCCCCCC.Cl`, the Activity is reported as 20%.

Each compound was assayed on Mus musculus (assay: Toxicity in BDF1 mouse allografted with mouse L1210 cells assessed as reduction in average life span at 1000 mg/kg, ip administered 24 hrs post-implantation measured up to 30 days relative to control). Details: in vivo.
Format: organism-based
Set-up: dose 1000 mg/kg, route intraperitoneal; scale not given: the % may be the effect or the level left
With `CCCCCCCCCCCCCC(=O)OC[C@H]1O[C@@H]2[C@@H](Oc3nc(=N)ccn32)[C@@H]1OC(=O)CCCCCCCCCCCCC.Cl` the Activity was 18%.

What follows are compounds tested on L1210 (assay: Antitumor activity against mouse L1210 cells allografted in BDF1 mouse assessed as survival at 200 mg/kg, ip administered 24 hrs post-implantation after 30 days). Details: not given.
Format: functional, organism-based
Set-up: dose 200 mg/kg
With `Cl.N=c1ccn2c(n1)O[C@H]1[C@H](O)[C@@H](CO)O[C@H]12` [ANCITABINE HYDROCHLORIDE] the Activity was “inactive”.
With `CC(=O)O[C@H]1[C@@H]2Oc3nc(=N)ccn3[C@@H]2O[C@@H]1COC(=O)C(C)(C)C.Cl` the Activity was “inactive”.

What follows are compounds tested on L1210 (assay: Antitumor activity against mouse L1210 cells allografted in BDF1 mouse assessed as survival at 500 mg/kg, ip administered 24 hrs post-implantation after 30 days). Details: not given.
Format: functional, organism-based
Set-up: dose 500 mg/kg
For `Cl.N=c1ccn2c(n1)O[C@H]1[C@H](O)[C@@H](CO)O[C@H]12` [ANCITABINE HYDROCHLORIDE], the Activity was “inactive”.

The compounds below were run on L1210 (assay: Antitumor activity against mouse L1210 cells allografted in BDF1 mouse assessed as survival at 1000 mg/kg, ip administered 24 hrs post-implantation after 30 days). Details: not given.
Format: functional, organism-based
Set-up: dose 1000 mg/kg
With `Cl.N=c1ccn2c(n1)O[C@H]1[C@H](O)[C@@H](CO)O[C@H]12` [ANCITABINE HYDROCHLORIDE] the Activity was “inactive”.

These compounds were tested on Mus musculus (assay: Toxicity in BDF1 mouse allografted with mouse L1210 cells assessed as survival at 500 mg/kg, ip administered 24 hrs post-implantation after 30 days). Details: in vivo, 720 h.
Format: organism-based
Set-up: dose 500 mg/kg, route intraperitoneal
For `CCCCCCCCCCCCCC(=O)OC[C@H]1O[C@@H]2[C@@H](Oc3nc(=N)ccn32)[C@@H]1OC(=O)CCCCCCCCCCCCC.Cl`, the Activity was “Toxic”.

These compounds were tested on Mus musculus (assay: Toxicity in BDF1 mouse allografted with mouse L1210 cells assessed as survival at 1000 mg/kg, ip administered 24 hrs post-implantation after 30 days). Details: in vivo, 720 h.
Format: organism-based
Set-up: dose 1000 mg/kg, route intraperitoneal
In the case of `CCCCCCCCCCCCCC(=O)OC[C@H]1O[C@@H]2[C@@H](Oc3nc(=N)ccn32)[C@@H]1OC(=O)CCCCCCCCCCCCC.Cl`, the Activity is reported as “Toxic”.

Each compound was assayed on L1210 (assay: Antitumor activity against mouse L1210 cells allografted in po dosed BDF1 mouse administered 24 hrs post-implantation). Details: not given.
Format: functional, organism-based
With `Cl.N=c1ccn2c(n1)O[C@H]1[C@H](O)[C@@H](CO)O[C@H]12` [ANCITABINE HYDROCHLORIDE] the Activity was “inactive”.
`CC(=O)O[C@H]1[C@@H]2Oc3nc(=N)ccn3[C@@H]2O[C@@H]1COC(=O)C(C)(C)C.Cl` was tested, and the Activity was “inactive”.
With `CCCCCCCCCCCCCC(=O)OC[C@H]1O[C@@H]2[C@@H](Oc3nc(=N)ccn32)[C@@H]1OC(=O)CCCCCCCCCCCCC.Cl` the Activity was “inactive”.
